In paper PMC6219514, “Structural basis of Gip1 for cytosolic sequestration of G protein in wide-range chemotaxis” (Nature Communications, 2018):

Biological target: T1, GFP-Flag-tagged Gip1 (Gip1-GFPF) in complex with G proteins (Dictyostelium discoideum, UniProt Q55BQ2)
T1 construct: gene DDB_G0271086; full-length Gip1 (1-310) with GFP-Flag tag, expressed in Dictyostelium cells, on anti-Flag beads with co-purified G proteins; Gγ geranylgeranylated at Cys66
Test: competitive dissociation of G proteins from bead-bound Gip1, immunoblot
Type: biochemical
Settings: CHAPS buffer pH 7.5, 4 °C, 1 h, 3.5% methanol

T1 sequence (Q55BQ2 entry or part of it, one chain of several): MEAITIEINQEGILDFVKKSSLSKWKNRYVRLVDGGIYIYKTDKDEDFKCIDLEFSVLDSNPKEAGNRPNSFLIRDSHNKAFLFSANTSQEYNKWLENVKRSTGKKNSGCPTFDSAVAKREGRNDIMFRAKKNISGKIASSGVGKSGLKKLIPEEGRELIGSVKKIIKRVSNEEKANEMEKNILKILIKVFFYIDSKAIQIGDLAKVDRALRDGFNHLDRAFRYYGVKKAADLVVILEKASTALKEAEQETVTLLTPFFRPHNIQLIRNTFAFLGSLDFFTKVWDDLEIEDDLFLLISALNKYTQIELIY

Structure (SMILES) | relative band intensity (0-100 µM, competitive with geranylgeranylated Gγ) | relative band intensity (100 µM)
CC(C)=CCC/C(C)=C/CC/C(C)=C/CC/C(C)=C/COP(=O)(O)OP(=O)(O)O [GG-pyroP, geranylgeranyl pyrophosphate] | the complex formation was competitively inhibited by the addition of geranylgeranyl pyrophosphate | 
CC(C)=CCC/C(C)=C/CC/C(C)=C/COP(=O)(O)OP(=O)(O)O [farnesyl pyrophosphate] |  | Farnesyl pyrophosphate showed slight impairment of the Gip1–G protein complex
